Results taken from patent US20100196464A1, “ORLISTAT PHARMACEUTICAL FORMULATIONS” (DR. REDDY'S LABORATORIES LIMITED, priority 2007, published 2010).

Key:
[1] = Particle size distribution; assay type: physicochemical
Source text: The term “average particle size” refers to particle sizes represented by D(0.5), wherein 50% of particles in a powder have sizes greater than, and 50% of particles have sizes less than, a specified value.
Various parameters impacting the preparation of solid oral dosage forms include the physical properties of active ingredients as well as those of the final blends of active ingredients with excipients, wherein the physical properties include flow properties, particle sizes (such as determined by sieve analyzers, electrical conductance instruments such as a Coulter counter, and laser light diffraction particle size analyzers such as the instruments available from Malvern Instruments, Ltd., Malvern, Worcestershire, United Kingdom), bulk densities and tapped densities, compressibility indexes, Hausner ratios (determined by USP density apparatus), flow properties (such as determined by Flowdex apparatus), etc.
The percent of particles with different dimensions that exist in a powder is called the particle size distribution. It is represented in certain ways. Particle size is the maximum dimension of a particle, normally expressed in units of μm. Particle size distributions can be expressed in terms of D(0.1), D(0.5), D(0.9) and D [4,3]. The D(0.1), D(0.5) and D(0.9) represent the 10th, median or the 50th percentile, and the 90th percentile of the particle size distribution, respectively. They can be expressed as volume, weight, or surface percentages. For example when measured by volume, D(0.1), D(0.5), D(0.9) is a value of the distribution such that 10%, 50%, 90% by volume of the particles have a size of this value or less, or is the percentage of particles smaller than that size. D(0.5) is also known as median diameter of particle. It is one of the important parameters representing characteristics of particle of powder. For a sample, if D(0.5)=5 μm, it means that 50% of the particles are smaller than 5 μm. Similarly, if D(0.1)=5 μm, 10% by volume of the particles are less than or equal to 5 μm, and if D(0.9)=5 μm, 90% of the particles are less than or equal to 5 μm. D[4,3] is the volume moment mean of the particles or the volume weighted particle size.

[2] = Bulk density and tapped density; assay type: physicochemical; conditions: orlistat used in the formulation of Example 6
Source text: Other important physicochemical characteristics of powders are the density properties such as bulk and tapped density, weight variation and flow properties such as angle of repose. Bulk density is the undisturbed packing density of that substance and tapped bulk density relates to the packing density after tapping a bed of substance until no change in the packing density is seen. Bulk density and tapped density, can be determined using compendial bulk density apparatus, such as the method given in Test 616 “Bulk Density and Tapped Density,” United States Pharmacopeia 29, United States Pharmacopeial Convention, Inc., Rockville, Md., 2005 (“USP”). Weight variation can be determined using the method given in United States Pharmacopeia 29.

[3] = cited from earlier work
[4] = physiological pH range; cited from earlier work
[5] = orlistat used in the formulation of Example 1
[6] = orlistat used in the formulation of Example 6

D(0.1) [1, 5]: 1.8 μm | D(0.5) [1, 5]: 8.6 μm | D(0.9) [1, 5]: 24.5 μm | D(0.1) [1, 6]: 18.7 μm | D(0.5) [1, 6]: 84.2 μm | D(0.9) [1, 6]: 171.8 μm | Bulk density [2]: 0.424 g/mL | Tapped density [2]: 0.571 g/mL
Compound: CCCCCCCCCCC[C@@H](C[C@@H]1OC(=O)[C@H]1CCCCCC)OC(=O)[C@H](CC(C)C)NC=O [Orlistat, (S)-1-[[(2S,3S)-3-hexyl-4-oxo-2-oxetanyl]methyl]-dodecyl ester]
Solubility in chloroform ([3]; chloroform): freely soluble | Solubility in ethanol ([3]; ethanol): very soluble | Solubility in methanol ([3]; methanol): very soluble | Solubility in water ([3]; water): practically insoluble | pKa [4]: no pKa within the physiological pH range
